In US6747125B1, “Peptides intermediates for making GnRH antagonists” (The Salk Institute for Biological Studies, priority 1991, dated 2004):

What was measured:
ovulation in female rats = test: in vivo testing of effectiveness to prevent ovulation in female rats; set-up: species or system Sprague-Dawley rats; conditions: injected at about noon on the day of proestrus, rats ovulating/rats treated
Description: The in vivo testing determines effectiveness to prevent ovulation in female rats. In this test, a specified number of mature female Sprague-Dawley rats, e.g. five to ten, each having a body weight from 225 to 250 grams, is injected with a specified microgram dosage of peptide in either saline, bacteriostatic water, polyethylene glycol, corn oil or mixtures of the above with ethanol at about noon on the day of proestrus. Proestrus is the afternoon […]. A separate female rat group is used as a control to which the peptide is not administered. Each of the control female rats ovulates on the evening of proestrus; of the rats treated, the number of them which ovulate is recorded. Each of the peptides is considered to be totally effective to prevent ovulation of female rats at a dose of about 500 micrograms.

[1] = system: LH levels in the bloodstream; test: suppression of circulating LH in castrate male rats after single IV bolus; format: in vivo, Sprague-Dawley rats
Description: In addition to the in vivo testing, mentioned above, to determine effectiveness to prevent ovulation in female rats, groups of about 6 adult castrate male Sprague-Dawley rats, each having a body weight from 225 to 250 grams, are each injected IV with a 50 microgram dosage of either Peptide No. 103A or a standard antagonist referred to as the Nal-Glu antagonist (see J. Clin. Edno. Metab., 71, 4, 881-888 (1990)) in either corn oil or a phosphate buffer in the presence of BSA (bovine serum albumin). A separate rat group is used as a control, to which only the carrier is administered. Each of the control rats and the rats being treated are monitored for LH levels in the bloodstream at about 3 hours, 24 hours, 36 hours and 48 hours following this single bolus injection.

| Substance | Rats Ovulating (ovulation in female rats; dosage 0.5 micrograms) | Rats Ovulating (ovulation in female rats; dosage 1.0 micrograms) | Rats Ovulating (ovulation in female rats; dosage 2.5 micrograms) | level of circulating LH in the bloodstream relative to Nal-Glu antagonist ([1]; 50 microgram IV, after 12 hours) | level of circulating LH in the bloodstream relative to control ([1]; 50 microgram IV, monitored at about 3, 24, 36 and 48 hours) | duration of biological effect (LH suppression) ([1]; single 50 microgram IV bolus injection) |
| --- | --- | --- | --- | --- | --- | --- |
| Ac-β-D-2NAL-(4Cl)D-Phe-D-3PAL-Ser-Aph(3-amino 1,2,4 triazole)-D-Aph(3-amino 1,2,4 triazole)-Leu-Lys(isopropyl)-Pro-D-Ala-NH2 [Peptide 103A] | 7/8 | 0/7 | 0/8 | below that of the rats treated with the Nal-Glu antagonist | very substantially below that of the control | very long-acting |
| Ac-β-D-2NAL-(4Cl)D-Phe-D-3PAL-Ser-Lys (isopropyl cyanoguanidino)-D-Lys(isopropyl cyanoguanidino)-Leu-Lys(isopropyl)-Pro-D-Ala-NH2 [Peptide 1] |  | 0/5 | 0/9 |  |  |  |
